Assay results reported in paper PMC6278385, “Preclinical Pharmacokinetics of C118P, a Novel Prodrug of Microtubules Inhibitor and Its Metabolite C118 in Mice, Rats, and Dogs” (Molecules, 2018).
Values belong to the molecule of their own block, whether it stands above or below them.

Assays:
[1] = Excretion in rats (bile, urine, feces); assay type: in vivo; settings: i.v. C118P 20 mg/kg
Experimental: Twelve rats (weight 220–260 g) with half males and half females were anesthetized with diethyl ether after fasted overnight. A median laparotomy was performed and the bile duct was cannulated with a catheter. After intravenous administration (20 mg/kg) of C118P solution, bile samples were collected at 1, 2, 4, 6, 10 and 24 h in EDTA-coated tubes. The accurate volume of bile samples were measured by weight loss method. A volume of 50 μL of bile was prepared by protein precipitation and determined by the method described above. The total cumulative molar excretion percentage of C118P and C118 in bile of ten rats was calculated according to the total molar amount of C118P and C118 and the dose.
Six rats (weight 200–230 g) with half males and half females were fasted overnight. After intravenous administration (20 mg/kg), urine and feces samples were collected at 12, 24, 36, 48, 60 and 72 h. The feces were collected in 200 mL of EDTA solution (100 mg/mL) and grinded into a suspension. The accurately volume amount of urine and feces samples were measured by weight loss method. A volume of 50 μL of urine or feces suspension was prepared by protein precipitation and determined by the method described above. The cumulative molar excretion percentage of C118P and C118 in urine or feces was calculated according to the concentrations of C118P and C118, the volume of each time period.

[2] = Plasma protein binding by ultrafiltration; assay type: in vitro ADME, beagle dogs; settings: beagle, dog plasma, read-out: fu (fraction unbound);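 also: fu expressed in percent not as a fraction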
Experimental: Both C118P and C118 were stable in the plasma with EDTA as anticoagulant. The non-specific binding to the ultrafilter membrane was negligible. The extent of plasma protein binding was reported as a fraction unbound (fu, %) value which was calculated using the formula fu = PF/TC × 100%, where TC is test compound (C118P or C118) concentration in sample before ultrafiltration, and PF is the test compound concentration in the ultrafiltrate (Table 1).
Plasma protein binding of C118P and C118 were determined by ultrafiltration at four concentrations (C118P: 400, 4000, 40,000, and 400,000 ng/mL, C118: 20, 200, 2000, and 20,000 ng/mL) in pooled plasma from Sprague-Dawley rats, beagle dogs, and humans. Stock solutions of C118P and C118 dissolved in methanol were diluted with blank plasma to achieve the test concentrations (the methanol volume is less than 10% of the plasma). The plasma was incubated for 1 h in a water bath at 37 °C. The total concentration of C118P and C118 of spiked plasma (TC) was analyzed by previously described methods. Ultrafiltration was performed with activated high speed centrifugal tubes (Millipore, Burlington, MA, USA). Plasma samples (0.4 mL) were added to the upper layer of the high speed centrifugal tubes, and then centrifuged at 12,000 g for 10 min. The concentration of unbound C118P and C118 in filtrate (PF) was similarly determined by the previously described methods. The percentage of free fraction (fu) of C118P and C118 was calculated as follows: fu = (PF/TC) × 100%.

[3] = Metabolic stability in liver microsomes; assay type: in vitro ADME, monkey
Experimental: The in vitro metabolic stability of C118P and C118 were estimated in mice, rat, dog, monkey, and human liver microsomes (Research Institute for Liver Diseases Co. Ltd (Shanghai, China)). The incubation mixture contains C118P or C118, NADP (1.0 mM), G-6-P (10 mM), PDH (2 units/mL), MgCl2 (10 mM), and liver microsomes (mice, rats, dogs, monkeys, or humans, 1.0 mg protein/mL) in phosphate buffer. A total of 200 μL of the mixture was removed and quenched with 600 μL acetonitrile in an ice bath at 0, 15, 30, 60, 120, and 240 min after the addition of NADPH.
CLint, in vitro (the in vitro intrinsic clearance, Equation (1)) was calculated from the t1/2 of C118 disappearance, where Cprotein is the protein concentration during the incubation, and t1/2 was determined by the slope (k) of the log-linear regression analysis of the concentration versus time profiles; thus, t1/2 = ln2/k. […] The in vivo hepatic clearance (CLH, Equation (3)) was then calculated by using CLint and hepatic blood flow, Q ([…] mL·min^−1·kg^−1 in rats, dogs, monkey, and humans, respectively), in the well-stirred liver model disregarding all binding. The hepatic extraction ratio was calculated as CLH divided by Q. CLint, in vitro = (0.693/t1/2) × (1/Cprotein)(1) CLint = CLint, in vitro × (mg protein/g liver weight) × (gliver weight/kg body weight)(2) CLH = (Q × CLint)/(Q + CLint)(3)

[4] = Tissue distribution in tumor bearing mice; assay type: in vivo, nude mice (BALB/cA) implanted with NCI-H460 tumor
Experimental: The nude mice (BALB/cA) implanted with NCI-H460 tumor were provided by Shanghai Institute of Materia Medica. A total of 36 mice were divided into 9 groups with four animals in each group. After fasting overnight with free access to water, the mice were treated with 75 mg/kg C118P by i.v. The blood samples were collected at 2, 10, 20, 40 min, 1, 2, 4, 8, 12 h after treatment and the mice were anaesthetized and decapitated to obtain the blood and tumor tissue. Blood, brain, muscle, ovary, and lung from mice in the PK study were collected at 10 min, 1, 4, and 12 h. Tissues were cleaned by absorbent filter paper to remove the blood. Bloods were centrifuged at 10,000× g for 5 min. Each tissue (0.2 g) was homogenized with 2 mL water. The plasma samples and the homogenates were then processed and determined by the method described above. The concentration was determined by the calibration curve and the actual concentration was corrected by multiplying by 10 according to the dilution times. […]
4. The distribution of CA4P and CA4 in tumor bearing mice.
The nude mice (BALB/cA) implanted with NCI-H460 tumor were provided by Shanghai institute of Materia Medica. A total of 36 mice were divided into 9 groups with 4 animals in each group.
After fasted overnight with free access to water, the mice were treated with 75 mg/kg CA4P by i.v.
The blood samples were collected at 2, 10, 20, 40 min, 1, 2, 4, 8, 12 h after treatment and the mice were anaesthetized and decapitated to obtain the blood and tumor tissue. All procedure are same as C118P in the main text. The concentration was determined by the calibration curve and the actual concentration was corrected by multiplying by 10 according to the dilution times.

[5] = 0.17 h after i.v. 75 mg/kg of C118P, n = 4
[6] = 1 h after i.v. 75 mg/kg of C118P, n = 4
[7] = 4 h after i.v. 75 mg/kg of C118P, n = 4
[8] = 12 h after i.v. 75 mg/kg of C118P, n = 4
[9] = 0.17 h after i.v. 75 mg/kg of C118P, n = 4, in ng/g

SMILES: COc1cc(OC)cc(-c2nc[nH]c2-c2ccc(OC)c(OP(=O)([O-])[O-])c2)c1.[Na+].[Na+] [C118P]
sulfuric acid conjugation in urine [1]: no sulfuric acid conjugation was found
fraction unbound at 1 h, 400 ng/mL ([2]; C118P 400 ng/mL): 0.019 ± 0.001
fraction unbound at 1 h, 4000 ng/mL ([2]; C118P 4000 ng/mL): 0.021 ± 0.001
fraction unbound at 1 h, 40000 ng/mL ([2]; C118P 40,000 ng/mL): 0.027 ± 0.002
fraction unbound at 1 h, 400000 ng/mL ([2]; C118P 400,000 ng/mL): 0.086 ± 0.003
stability in liver microsomes ([3]; monkey liver microsomes (Figure S1)): quite stable
concentration in Lung [4, 5]: 130.2 ± 7.5
concentration in Plasma [4, 5]: 5199.4 ± 2147.9
concentration in Tumor [4, 5]: 115.8 ± 24.1
concentration in muscle [4, 5]: 355.4 ± 64.1
concentration in Plasma [4, 6]: 191.2 ± 60.5
concentration in Tumor [4, 6]: 73.0 ± 15.0
concentration in Plasma [4, 7]: 14.7 ± 8.4
concentration in Tumor [4, 7]: 26.7 ± 0.0
concentration in Plasma [4, 8]: 6.1 ± 0.0

fraction unbound at 1 h, 200 ng/mL ([2]; pooled plasma, C118 200 ng/mL): 0.058 ± 0.002
fraction unbound at 1 h, 2000 ng/mL ([2]; pooled plasma, C118 2000 ng/mL): 0.062 ± 0.004
fraction unbound at 1 h, 20000 ng/mL ([2]; pooled plasma, C118 20,000 ng/mL): 0.054 ± 0.004
CLint, in vitro ([3]; monkey liver microsomes): 318.6 μL·min^−1·mg^−1 Protein
half-life ([3]; monkey liver microsomes, 1.0 mg protein/mL, C118 disappearance): 2.2 min
CLint ([3]; monkey, scaled from CLint, in vitro): 252.8 mL/min/kg
Extrapolated CLH ([3]; monkey, well-stirred liver model): 37.5 mL/min/kg
concentration in muscle [4, 5]: 15,202.5 ± 8814.7
concentration in ovary [4, 5]: 26,723.8 ± 18,229.6
concentration in Lung [4, 9]: 26,923.2 ± 4389.0
concentration in Tumor [4, 9]: 14,563.3 ± 1989.9
concentration in brain [4, 9]: 3562.8 ± 796.6
concentration in Plasma ([4]; 0.17 h after i.v. 75 mg/kg of C118P, n = 4, in ng/mL): 26,048.0 ± 2429.7
concentration in Lung [4, 6]: 1852.3 ± 929.3
concentration in Plasma [4, 6]: 1730.0 ± 986.4
concentration in Tumor [4, 6]: 12,998.1 ± 4132.3
concentration in brain [4, 6]: 1250.7 ± 351.3
concentration in muscle [4, 6]: 946.8 ± 390.6
concentration in ovary [4, 6]: 3308.6 ± 2611.1
concentration in Lung [4, 7]: 231.3 ± 181.7
concentration in Plasma [4, 7]: 132.6 ± 56.8
concentration in Tumor [4, 7]: 4969.8 ± 3414.7
concentration in brain [4, 7]: 109.1 ± 22.0
concentration in muscle [4, 7]: 136.4 ± 2.8
concentration in Tumor [4, 8]: 1327.7 ± 1124.0
SMILES: COc1cc(OC)cc(-c2nc[nH]c2-c2ccc(OC)c(O)c2)c1 [C118]
